pIC50: −log10 of the molar value.
Key:
[1] = system: human breast cancer cell lines (DT22, MCF7, T47D, BT474, MDA-MB-453, MDA-MB-468, MDA-MB-231); test: Cell proliferation (WST-1) in panel of breast cancer cell lines; assay type: cell-based
Protocol: (§1) WST-1 assay (Roche, Basel, Switzerland) was used to quantify cell viability as described.[38] Absorbance was measured at 450 nm using a VICTOR X5 PerkinElmer 2030 Multilabel Plate Reader. All assays were performed in triplicate and analyzed using Graph Pad Prism 8.0.

[2] = system: MCF10A breast cell line; test: Cell proliferation in non-tumorigenic MCF10A cells; assay type: cell-based, human; conditions: low level of FOXM1
Protocol: as §1

[3] = system: FOXM1 target gene expression in MCF7 cells; test: FOXM1 target gene expression by qRT-PCR; assay type: cell-based, human; conditions: MCF7, 24 h, compound at its IC50 for proliferation
Protocol: Total RNA was isolated using TRIzol (Invitrogen) and reverse transcribed using […] reverse transcriptase (New England BioLabs). Real-time PCR was performed using SYBRgreen PCR Master Mix (Quantabio) as described.[15] Relative mRNA levels of genes were normalized to the housekeeping gene 36B4, and fold-change calculated relative to the vehicle treated samples. Results are the average ± SD from at least two independent experiments carried out in triplicate. Primer sequences for the genes studied were obtained from the Harvard Primer Bank. Sequences are available on their website.

[4] = system: MCF7 cells; test: RNA-Seq gene regulation in MCF7 cells; assay type: cell-based, human
Protocol: For gene expression analysis, total RNA was extracted from cells using Trizol reagent and further cleaned using the Turbo DNase and RNAqueous kits (ThermoFisher). Cells were treated with Veh (0.1% EtOH), or with the compounds indicated for 9 h or 24 h. Once the sample quality and replicate reproducibility were verified, samples from each group were subjected to sequencing. RNA at a concentration of 100 ng/µl in nuclease-free water was used for library construction. cDNA libraries were prepared with the mRNA-TruSeq Kit (Illumina, Inc.). In brief, the poly-A containing mRNA was purified from total RNA, the RNA was fragmented, double-stranded cDNA was generated from fragmented RNA, and adapters were ligated to the ends.
The paired-end read data from the HiSeq 4000 were processed and analyzed through a series of steps. Base calling and de-multiplexing of samples within each lane were done with Casava 1.8.2. The RNA sequences were prepared with Illumina’s TruSeq Stranded mRNAseq Sample Prep kit. Reads were trimmed of adapters and low expression data using Trimmomatic version 0.38.[42] The STAR alignment tool version 2.5.3a was used to align the sequenced reads to the GRCh37 human genome from Ensembl.[43] Gene counts were calculated using subread version 1.5.2.[44],[45] The edgeR Bioconductor package in R was used for normalization and differential expression analysis. Default normalization methods were used, specifically trimmed mean of M values or TMM was used to calculate the normalized expression values. This method calculates the weighted trimmed mean of the log expression ratios in a gene-wise fashion.[46],[47] We considered genes with fold-change > 2 and p-value < 0.05 as statistically significant, differentially expressed.

[5] = Pharmacokinetics in mice after single s.c. or oral dose; assay type: in vivo, female CD1 mice; conditions: for AUC / Cmax / half-life: female, CD1, mouse, 40 mg/kg, single dose, plasma
Protocol: The pharmacokinetics of compounds were monitored after single dose administration into female CD1 mice (7–9 weeks of age) via s.c. injection or oral gavage, as described.[39] For s.c. injection, each compound was dissolved in DMSO and then mixed with corn oil for a total injection volume of 100 μL (10% DSMO + 90% corn oil) per mouse. For oral gavage, compounds were administered in a 200 µL formulation of 9/0.5/0.5/90 parts of PEG400/Tween80/Povidone/0.5% Carboxymethylcellulose in DI water. […] Compounds were quantified by LC-MS/MS at the University of Illinois Metabolomics Core Facility. The data were fitted to a non-compartment model.

pIC50 ([1]; Homo sapiens, breast cancer cell lines, read-out: IC50 for inhibition of proliferation): 5.00 to 5.70
PK properties (half-lives and blood levels achieved) ([5]; after oral administration): good PK properties
PK properties (half-lives and blood levels achieved) ([5]; after s.c. administration): good PK properties
AUC ([5]; oral): 35.7 µM·h
Cmax ([5]; oral): 2380 nM
half-life ([5]; oral): 28.8 h
AUC ([5]; sc): 34.7 µM·h
Cmax ([5]; sc): 1200 nM
half-life ([5]; sc): 135 h
SMILES: Clc1ccc(C(=C2C3CC4CC(C3)CC2C4)c2ccc(OCCCCCCN3CCCC3)cc2)cc1 [NB-55]
reduced potency in suppression of cell proliferation ([1]; dose-response studies in cells in culture): 5 fold
concentration for 50% suppression of proliferation relative to breast cancer cell lines [2]: five times higher
expression of ATF3, a gene suppressed by FOXM1 [3]: increased expression of ATF3
expression of FOXM1 stimulated target genes (FOXM1C, AURKB, CCNB1, PLK1) [3]: significantly reduced the expression
genes regulated that overlapped with NB-73 regulated genes ([4]; MCF7, 9 h, more than 2-fold, FDR < 0.05): 72%
genes regulated more than 2-fold (Venn diagram) ([4]; MCF7, 9 h treatment, p < 0.05, FDI-6 20 µM): 567 genes

— paper PMC6884575, “Suppression of FOXM1 activities and breast cancer growth in vitro and in vivo by a new class of compounds” (NPJ Breast Cancer, 2019)
